In patent publication US6121463A, “Alkyl-4-silylheterocyclic phenols and thiophenols useful as antioxidant agents” (priority 1998, dated 2000):

Key:
[1] = Animal parameters in male Sprague-Dawley rats; assay type: in vivo, Sprague-Dawley rat; conditions: 0.3% diet, 4 days; for body wt. as a percent of control / food (grams eaten per day per rat) as a percent of control / lw/bw (liver weight/body weight) as a percent of control: N=5; for mortality at 96 h: rat, in vivo, po, N=5, read-out: mortality (deaths per group)
Text: (§1) A typical experiment consists of 4-6 groups of rats (N=5 per group) with 1 group being a control which receives no MDL compound and the other groups being treated with 0.3% MDL compound. Some of the compounds are either repeated at 0.3% or evaluated again at the lower dose of 0.1%. House Male Sprague-Dawley rats, 50-100 g, (Harlan Laboratories, Indianapolis, Ind.) in groups of 5, feeding ad libitum water and Purina Rodent chow (#5002) with or without MDL compound as a dietary admixture for 4 days. Make dietary admixtures (0.3%) by mixing 1.2 grams of an MDL compound with 400 grams of Purina rodent chow (#5002). Mix the MDL compound with approximately 50 grams of food using a mortar and pestle. This is added to the remainder of the food and mixed for 3 hours on a rotary mixer. In the morning of day 5, anesthetize non-fasted rats with carbon dioxide, and collect blood by cardiac puncture. Sacrifice rats by cervical dislocation. Record body weights and liver weights in grams. Record food consumption as grams.cndot.day^-1 .cndot.rat^-1. Deaths are recorded as mortality. Use aliquots of fresh serum for clinical chemistries, thiobarbituric acid reactive substances (TBARS) and conjugated diene measurements. Freeze aliquots of serum (~0.5mL) and whole livers at -20° C. for compound and metabolite concentration determination at a later time.

[2] = system: oxidation of serum lipids; assay: Thiobarbituric acid reactive substances (TBARS) assay in serum of treated rats; assay type: in vivo, Sprague-Dawley rat; conditions: 0.3% diet, 4 days, male rats, N=5; CuSO4 oxidation of serum, 37° C., 3 hr
Text: as §1, with “Sacrifice rats by cervical dislocation. Record body weights and liver weights in grams. Record food consumption as grams.cndot.day^-1 .cndot.rat^-1.” left out, “Use aliquots of fresh serum for clinical chemistries, thiobarbituric acid reactive substances (TBARS) and conjugated diene measurements. Freeze aliquots of serum (~0.5mL) and whole livers at -20° C. for compound and metabolite concentration determination at a later time.” left out
In this assay the oxidation of serum lipids is initiated with CuSO4, resulting in the formation of aldehydes, such as malondialdehyde (MDA). Upon incubation with thiobarbituric acid, the absorbance of the aldehydes can be detected at 530-540 nm. […] Measure absorbances at 540 nm using a Biotek model EL311 microplate reader. The nmoles of MDA produced are calculated from a standard curve of 0 to 10 nmoles of MDA prepared from malonaldehyde bis(dimethylacetal). […]

[3] = Serum clinical chemistries in male Sprague-Dawley rats after dietary admixture; assay type: in vivo, Sprague-Dawley rat; conditions: 0.3% diet, 4 days, N=5
Text: as §1
Allow blood to clot at room temperature for 30 minutes. Obtain serum after centrifugation for 10 min at 4° C. at 3000 rpm in a Beckman J-6M/E centrifuge with a JS-4.2 rotor. Analyze fresh serum by a COBAS MIRA S autoanalyzer (Roche Diagnostics) using Roche diagnostic reagents for the following clinical chemistry measurements: alkaline phosphatase (ALP, kit #44553), alanine transaminase (ALT, kit #42375), aspartate aminotransferase (AST, kit #42381), total cholesterol (CHOL, kit #44334), triglyceride (TG, kit #44120), and glucose (GLU, kit #44558). Calculate ALP, ALT, and AST as units/L. Calculate cholesterol, triglycerides, and glucose as mg/dL.

oxidation of lipids = assay: Conjugated diene determination (lag phase) in pooled serum of treated rats; assay type: in vivo, Sprague-Dawley rat; conditions: 0.3% diet, 4 days; mean of 2 determinations of pooled samples, N=5; control = 61 min.
Text: as §1, with “Use aliquots of fresh serum for clinical chemistries, thiobarbituric acid reactive substances (TBARS) and conjugated diene measurements. Freeze aliquots of serum (~0.5mL) and whole livers at -20° C. for compound and metabolite concentration determination at a later time.” left out
Conjugated diene lag phase is another indicator of the oxidation of lipids. […] Measure the absorbances of all cuvettes and set the instrument baseline to zero using the lowest absorbing sample. […] Record the absorbance of each cuvette at 2 min intervals for a period of 840 min. […]

ICAM-1 = conditions: vascular endothelial cells; Mauri, N. et al.; cited from earlier work

Row | SMILES | body wt. as a percent of control [1] | food (grams eaten per day per rat) as a percent of control [1] | lw/bw (liver weight/body weight) as a percent of control [1] | mortality at 96 h [1] | TBARS (thiobarbituric acid reactive substances) as a percent of control [2] | ALP (alkaline phosphatase) as a percent of control [3] | ALT (alanine aminotransferase) as a percent of control [3] | AST (aspartate aminotransferase) as a percent of control [3] | CHOL (total cholesterol) as a percent of control [3] | GLUC (glucose) as a percent of control [3] | TRIG (triglycerides) as a percent of control [3] | CONJ. DIENE (conjugated diene lag phase) (oxidation of lipids) | inhibition of cytokine-induced expression of ICAM-1 (ICAM-1)
1 | CC(C)(C)c1cc(OC[Si](C)(C)c2ccco2)cc(C(C)(C)C)c1O [106,939] | 92% | 88% | 130% | 0% | 64% | 123% | 92% | 106% | 120% | 83% | 108% | – | –
2 | CC(C)(C)c1cc(OC[Si](C)(C)c2cccs2)cc(C(C)(C)C)c1O [107,965] | 84% | 84% | 118% | 0% | 57% | 137% | 96% | 89% | 121% | 86% | 90% | 273 min | –
3 | CC(=O)N[C@@H](CS)C(=O)O [N-acetylcysteine] | – | – | – | – | – | – | – | – | – | – | – | – | but not ICAM-1
4 | S=C(S)N1CCCC1 [pyrollidine dithiocarbamate] | – | – | – | – | – | – | – | – | – | – | – | – | but not ICAM-1
